Broadly, the IC50 is the midpoint of a concentration-inhibition curve.

Experimental findings from BindingDB's records for doi:10.1074/jbc.M804990200 (Harvard Medical School, 2008) are described below.

Common to all, as to assay: Continuous Assay
Experiment [1] deals with T1, Dihydroorotate dehydrogenase (quinone), mitochondrial (Plasmodium falciparum, UniProt Q54A96).
T1 sequence (Q54A96 whole entry): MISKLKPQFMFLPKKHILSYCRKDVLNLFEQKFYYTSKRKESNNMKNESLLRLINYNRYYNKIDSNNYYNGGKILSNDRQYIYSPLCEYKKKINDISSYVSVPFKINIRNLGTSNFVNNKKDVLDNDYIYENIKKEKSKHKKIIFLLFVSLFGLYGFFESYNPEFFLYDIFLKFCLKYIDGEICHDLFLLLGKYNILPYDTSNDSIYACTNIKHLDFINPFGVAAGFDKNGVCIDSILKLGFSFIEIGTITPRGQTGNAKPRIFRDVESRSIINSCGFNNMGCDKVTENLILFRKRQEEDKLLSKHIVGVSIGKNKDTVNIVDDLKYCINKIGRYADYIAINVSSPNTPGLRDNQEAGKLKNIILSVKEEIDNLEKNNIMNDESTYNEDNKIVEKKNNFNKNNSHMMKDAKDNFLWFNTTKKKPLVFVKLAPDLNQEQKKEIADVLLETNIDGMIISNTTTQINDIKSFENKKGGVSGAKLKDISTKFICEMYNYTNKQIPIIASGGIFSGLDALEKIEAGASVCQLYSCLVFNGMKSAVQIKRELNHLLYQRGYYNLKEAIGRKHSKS
The protocol:
(§1) Assay was determined using a continuous assay.

In experiment [2] the target is Dihydroorotate dehydrogenase (quinone), mitochondrial (Homo sapiens, UniProt Q02127). The protocol:
as §1

Experiment [3] deals with T2, Dihydroorotate dehydrogenase (quinone), mitochondrial [100-517] (Plasmodium berghei (strain Anka), UniProt A0A509AEH5).
T2 construct: 100-517
T2 sequence (A0A509AEH5 whole entry): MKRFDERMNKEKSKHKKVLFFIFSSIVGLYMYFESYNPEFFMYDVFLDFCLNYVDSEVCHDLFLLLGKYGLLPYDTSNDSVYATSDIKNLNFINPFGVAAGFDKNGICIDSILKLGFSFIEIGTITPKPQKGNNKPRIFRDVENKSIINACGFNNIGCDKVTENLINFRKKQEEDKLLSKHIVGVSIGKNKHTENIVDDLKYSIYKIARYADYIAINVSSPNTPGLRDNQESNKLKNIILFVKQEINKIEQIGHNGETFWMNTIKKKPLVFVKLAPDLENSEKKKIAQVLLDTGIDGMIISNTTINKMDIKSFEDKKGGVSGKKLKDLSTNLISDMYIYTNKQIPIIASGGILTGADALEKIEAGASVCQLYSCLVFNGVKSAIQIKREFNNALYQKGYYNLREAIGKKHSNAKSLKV
The method, then: as §1

In experiment [4] the target is T3, Dihydroorotate dehydrogenase (quinone), mitochondrial (Plasmodium vivax (strain Salvador I), UniProt A5K1N1).
T3 sequence (A5K1N1 whole entry): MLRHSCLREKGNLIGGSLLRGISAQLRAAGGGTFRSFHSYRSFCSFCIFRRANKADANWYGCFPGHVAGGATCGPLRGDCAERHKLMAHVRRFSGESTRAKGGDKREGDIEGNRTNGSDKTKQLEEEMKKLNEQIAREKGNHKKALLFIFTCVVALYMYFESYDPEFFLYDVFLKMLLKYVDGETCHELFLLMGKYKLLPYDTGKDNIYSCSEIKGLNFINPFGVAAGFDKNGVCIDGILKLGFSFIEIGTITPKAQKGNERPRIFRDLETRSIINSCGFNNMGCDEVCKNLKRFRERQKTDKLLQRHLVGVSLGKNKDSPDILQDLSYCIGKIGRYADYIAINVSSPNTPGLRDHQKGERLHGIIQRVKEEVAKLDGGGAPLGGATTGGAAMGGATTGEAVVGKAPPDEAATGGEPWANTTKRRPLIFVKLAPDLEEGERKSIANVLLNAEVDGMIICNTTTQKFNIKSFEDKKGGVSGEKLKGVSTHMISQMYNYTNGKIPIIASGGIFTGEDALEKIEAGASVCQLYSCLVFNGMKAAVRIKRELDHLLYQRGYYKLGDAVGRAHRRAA
The method, then:
as §1

Sequence of Dihydroorotate dehydrogenase (quinone), mitochondrial (Homo sapiens, UniProt Q02127) (Q02127 whole entry): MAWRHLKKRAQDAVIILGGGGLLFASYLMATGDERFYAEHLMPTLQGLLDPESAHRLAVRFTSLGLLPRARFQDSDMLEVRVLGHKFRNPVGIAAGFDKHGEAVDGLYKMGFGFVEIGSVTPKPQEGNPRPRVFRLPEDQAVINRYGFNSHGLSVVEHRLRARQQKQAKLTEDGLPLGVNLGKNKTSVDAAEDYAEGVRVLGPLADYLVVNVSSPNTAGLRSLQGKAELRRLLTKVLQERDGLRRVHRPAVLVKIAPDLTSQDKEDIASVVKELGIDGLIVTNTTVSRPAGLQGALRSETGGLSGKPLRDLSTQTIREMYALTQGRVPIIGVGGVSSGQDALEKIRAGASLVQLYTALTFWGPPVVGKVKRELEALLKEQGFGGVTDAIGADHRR

As for `CCCNC(=O)c1ccc(-n2c(C)cc3ccccc32)s1` [US8703811, 1], the IC50 in experiment [1] is 420 nM; in experiment [2], above 30000 nM.
In the case of `Cc1ccccc1/C=C/c1cc(O)c2ccccc2n1` [US8703811, 2], the IC50 in experiment [3] was 560 nM; in experiment [1], 930 nM; in experiment [4], 5600 nM; in experiment [2] it was above 30000 nM.
As to `CCCCCC1CCCc2c1nc1ccccc1c2O` (centres undefined) [US8703811, 3], the IC50 was 110 nM in experiment [3], 340 nM in experiment [1], 510 nM in experiment [4] and above 30000 nM in experiment [2].
In experiment [1], `O=C(NC1CC1)c1ccc(N2CCSc3ccccc32)s1` [US8703811, 5] yielded an IC50 of 250 nM.
`CCOC(=O)c1[nH]c(C)c(Cc2ccc(OCC)cc2)c1C` [US8703811, 6]: the results for the half-maximal inhibitory concentration (IC50) in experiment [3], in experiment [1] and in experiment [2] were 60 nM, 83 nM and above 30000 nM, respectively.
